Experiments:
Canidae = details: oral, Dog Other, clinical chemistry

Work on `COc1cc(C)c(C(=O)c2c(OC)ncc(Cl)c2C)c(OC)c1OC` [Pyriofenone] yielded an LC50 (Colinus virginianus; acute, oral, diet, mortality) greater than 980 mg/kg-day, an LD50 (Colinus virginianus; acute, oral, mortality) greater than 2000 mg/kg-day and an NOAEL (Colinus virginianus; reproduction developmental, reproduction) of 94 mg/kg-day. It also gave an NOAEL (Canidae; chronic, duration: 1 years) of 13.7 mg/kg-day, an NOAEL (Canidae; subchronic, duration: 90 days) of 15 mg/kg-day and an LD50 (Rattus norvegicus; acute, oral, mortality) greater than 2000 mg/kg-day. The NOAEL (Rattus norvegicus; chronic, duration: 2 years, hematological) was 7.25 mg/kg-day, the NOAEL (Rattus norvegicus; reproduction developmental, hematological) was 64.1 mg/kg-day and the NOAEL (Rattus norvegicus; subchronic, duration: 90 days, oral, organ weight) was 17.9 mg/kg-day. The NOAEL (Anas platyrhynchos; reproductive, reproduction) was 119 mg/kg-day and the LC50 (Anas platyrhynchos; short-term, oral, feed, mortality) was greater than 1290 mg/kg-day.

— EPA's ToxValDB 9.5 (doi:10.2903/j.efsa.2013.3147)
